Source: patent US8580965B2, “Substituted sulfonamide compounds” (Gruenenthal GmbH, priority 2006, dated 2013)

Legend:
[1] = target: T1, human B1R receptor (bradykinin 1 receptor) (Homo sapiens, UniProt P46663); test: FLIPR Ca2+ assay (Fluo-4) on CHO K1 cells stably transfected with the human B1R gene; % activation and % inhibition at 10 μM; assay type: cell-based; details: CHO K1 hB1R cells, Ca2+ inflow after 0.5 nM Lys-Des-Arg9-bradykinin; for inhibition at 10 µM: CHO-K1, test substance 10 μM, read-out: B1R antagonism, human [10 μM] % inhibition; for B1R antagonism, human [10 μM] % inhibition: test substance 10 μM
T1 construct: host or cells: CHO K1 cells (hB1R cells)
T1 sequence (P46663 1-353): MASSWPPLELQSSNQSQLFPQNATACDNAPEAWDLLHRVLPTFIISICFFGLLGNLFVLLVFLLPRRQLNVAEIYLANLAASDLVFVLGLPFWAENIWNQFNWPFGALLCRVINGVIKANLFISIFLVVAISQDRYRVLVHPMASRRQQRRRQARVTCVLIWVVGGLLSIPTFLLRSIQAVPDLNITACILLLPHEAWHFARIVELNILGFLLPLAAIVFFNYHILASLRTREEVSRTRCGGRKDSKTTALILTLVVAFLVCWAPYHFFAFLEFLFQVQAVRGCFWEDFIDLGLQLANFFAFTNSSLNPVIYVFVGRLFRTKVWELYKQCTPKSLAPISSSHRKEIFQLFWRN
In short: (§1)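 Fluo-4 Ca2+ flux on FLIPR in stable hB1R or rB1R CHO K1 lines, two additions. Agonism: 10 µM compound versus 0.5 nM Lys-Des-Arg9-BK (human) or 100 nM Des-Arg9-BK (rat); antagonism: same agonists applied 10 min later, suppression expressed against maximum achievable inhibition.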

[2] = target: T2, B1R receptor of the rat (bradykinin 1 receptor) (Rattus norvegicus, UniProt P97583); test: FLIPR Ca2+ assay (Fluo-4) on CHO K1 cells stably transfected with the B1R gene of the rat; % activation and % inhibition at 10 μM; assay type: cell-based; details: CHO K1 rB1R cells, Ca2+ inflow after 100 nM Des-Arg9-bradykinin; for inhibition at 10 µM: CHO-K1, test substance 10 μM, read-out: B1R antagonism, rat [10 μM] % inhibition; for B1R antagonism, rat [10 μM] % inhibition: test substance 10 μM
T2 construct: host or cells: CHO K1 cells (rB1R cells)
T2 sequence (P97583 1-337): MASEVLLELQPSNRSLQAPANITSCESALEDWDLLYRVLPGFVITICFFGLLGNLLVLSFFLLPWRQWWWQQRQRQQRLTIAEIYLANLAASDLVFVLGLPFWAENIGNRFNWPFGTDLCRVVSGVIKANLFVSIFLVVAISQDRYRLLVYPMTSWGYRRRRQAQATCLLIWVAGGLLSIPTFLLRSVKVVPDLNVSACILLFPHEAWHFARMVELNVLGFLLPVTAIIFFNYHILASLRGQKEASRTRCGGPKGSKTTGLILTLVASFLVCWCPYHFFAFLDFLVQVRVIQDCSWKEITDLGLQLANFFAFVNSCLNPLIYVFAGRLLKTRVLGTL
In short: as §1

Structure (SMILES)	inhibition at 10 µM [1]	inhibition at 10 µM [2]	B1R antagonism, human [10 μM] % inhibition [1]	B1R antagonism, rat [10 μM] % inhibition [2]
COc1cc(C)c(S(=O)(=O)N2CCCC2COCC(=O)N2CCC(O)(c3cccc(C(F)(F)F)c3)CC2)c(C)c1 (centres unmarked) [Example 217, 1-(4-hydroxy-4-(3-(trifluoromethyl)phenyl)piperidin-1-yl)-2-((1-(4-methoxy-2,6-dimethylphenylsulfonyl)pyrrolidin-2-yl)methoxy)ethanone]	105%	99.9%	–	–
COc1cc(C)c(S(=O)(=O)N2CCC(COCC(=O)N3CCC(O)(c4ccc(Cl)c(C(F)(F)F)c4)CC3)C2)c(C)c1 (centres unmarked) [Example 228, 1-(4-(4-chloro-3-(trifluoromethyl)phenyl)-4-hydroxypiperidin-1-yl)-2-((1-(4-methoxy-2,6-dimethylphenylsulfonyl)pyrrolidin-3-yl)methoxy)ethanone]	95%	101%	–	–
O=C(COCC1CCCCN1S(=O)(=O)c1ccccc1C(F)(F)F)N1CCC(O)(Cc2ccccc2)CC1 (centres unmarked) [Example 176, 1-(4-benzyl-4-hydroxypiperidin-1-yl)-2-((1-(2-(trifluoromethyl)phenylsulfonyl)piperidin-2-yl)methoxy)ethanone]	91%	102%	–	–
O=C(COC1CCCN(S(=O)(=O)c2c(Cl)cc(Cl)cc2Cl)C1)N1CCC(O)(c2ccc(Cl)c(C(F)(F)F)c2)CC1 (centres unmarked) [Example 250, 1-(4-(4-chloro-3-(trifluoromethyl)phenyl)-4-hydroxypiperidin-1-yl)-2-(1-(2,4,6-trichlorophenylsulfonyl)piperidin-3-yloxy)ethanone]	18%	76.3%	–	–
O=C(COC1CCN(S(=O)(=O)c2ccccc2)C1)N1CCC(O)(c2ccccn2)CC1 (centres unmarked) [Example 34, 2-(1-phenylsulfonyl-pyrrolidin-3-yloxy)-1-(4′-hydroxy-3′,4′,5′,6′-tetrahydro-2′H-[2,4′]bipyridinyl-1′-yl)-ethanone]	5.93%	40.3%	–	–
COc1cc(C)c(S(=O)(=O)N2CCCCC2CCC(=O)N2CCC(O)(c3cccnc3)CC2)c(C)c1 (centres unmarked) [Example 112, 1-(4-hydroxy-4-(pyridin-3-yl)piperidin-1-yl)-3-(1-(4-methoxy-2,6-dimethylphenylsulfonyl)piperidin-2-yl)propan-1-one]	106%	101%	–	–
COc1cc(C)c(S(=O)(=O)N2CCCC2COCC(=O)N2CCC(O)(c3ccc(Cl)c(C(F)(F)F)c3)CC2)c(C)c1 (centres unmarked) [Example 213, 1-(4-(4-chloro-3-(trifluormethyl)phenyl)-4-hydroxypiperidin-1-yl)-2-((1-(4-methoxy-2,6-dimethylphenylsulfonyl)pyrrolidin-2-yl)methoxy)ethanone]	–	–	103.55%	101.25%
O=C(COCC1CCCCN1S(=O)(=O)c1ccccc1C(F)(F)F)N1CCC(O)(c2ccccc2)CC1 (centres unmarked) [Example 175, 1-(4-hydroxy-4-phenylpiperidin-1-yl)-2-((1-(2-(trifluoromethyl)phenylsulfonyl)piperidin-2-yl)methoxy)ethanone]	86%	104%	–	–
COc1cc(C)c(S(=O)(=O)N2CCC(COCC(=O)N3CCC(O)(c4ccc(Cl)cc4)CC3)C2)c(C)c1 (centres unmarked) [Example 202, 1-(4-(4-chlorophenyl)-4-hydroxypiperidin-1-yl)-2-((1-(4-methoxy-2,6-dimethylphenylsulfonyl)pyrrolidin-3-yl)methoxy)ethanone]	99.2%	98.5%	–	–
O=C(COCC1Cc2ccccc2CN1S(=O)(=O)c1ccc(Cl)cc1Cl)N1CCC(O)(c2ccc(Cl)cc2)CC1 (centres unmarked) [Example 79, 1-(4-(4-chlorophenyl)-4-hydroxypiperidin-1-yl)-2-((2-(2,4-dichlorophenylsulfonyl)-1,2,3,4-tetrahydroisoquinolin-3-yl)methoxy)ethanone]	47.3%	70.7%	–	–
O=C(COCC1CCCCN1S(=O)(=O)c1c(Cl)cc(C(F)(F)F)cc1Cl)N1CCC(O)(Cc2ccccc2)CC1 (centres unmarked) [Example 163, 1-(4-benzyl-4-hydroxypiperidin-1-yl)-2-((1-(2,6-dichloro-4-(trifluoromethyl)phenylsulfonyl)piperidin-2-yl)methoxy)ethanone]	46.1%	101%	–	–
Cc1cc(S(=O)(=O)N(C)CCOCC(=O)N2CCC(O)(c3ccc(Br)cc3)CC2)c(C)cc1Cl [Example 151, N-(2-(2-(4-(4-bromophenyl)-4-hydroxypiperidin-1-yl)-2-oxoethoxy)ethyl)-4-chloro-N,2,5-trimethylphenylsulfonamide]	97.8%	86.9%	–	–
O=C(COCC1CCN(S(=O)(=O)c2c(Cl)cc(Cl)cc2Cl)C1)N1CCC(O)(Cc2ccccc2)CC1 (centres unmarked) [Example 248, 1-(4-benzyl-4-hydroxypiperidin-1-yl)-2-((1-(2,4,6-trichlorophenylsulfonyl)pyrrolidin-3-yl)methoxy)ethanone]	40%	85.1%	–	–
COc1cc(C)cc(C)c1S(=O)(=O)N1CCC(OCC(=O)N2CCC(O)(Cc3ccccc3)CC2)C1 (centres unmarked) [Example 265, 1-(4-benzyl-4-hydroxypiperidin-1-yl)-2-(1-(2-methoxy-4,6-dimethylphenylsulfonyl)pyrrolidin-3-yloxy)ethanone]	54.1%	29.5%	–	–
O=C(COCC1Cc2ccccc2CN1S(=O)(=O)c1ccc(Cl)cc1Cl)N1CCC(O)(c2cccnc2)CC1 (centres unmarked) [Example 92, 2-[2-(2,4-dichloro-phenylsulfonyl)-1,2,3,4-tetrahydro-isoquinolin-3-ylmethoxy]-1-(4′-hydroxy-3′,4′,5′,6′-tetrahydro-2′H-[3,4′]bipyridinyl-1′-yl)-ethanone]	–	–	101.02%	97.98%
O=C(COCC1Cc2ccccc2CN1S(=O)(=O)c1ccccc1)N1CCC(O)(c2cccnc2)CC1 (centres unmarked) [Example 90, 2-(2-phenylsulfonyl-1,2,3,4-tetrahydro-isoquinolin-3-ylmethoxy)-1-(4′-hydroxy-3′,4′,5′,6′-tetrahydro-2′H-[3,4′]bipyridinyl-1′-yl)-ethanone]	13.8%	31.1%	–	–
CN(C1CCCCC1OCC(=O)N1CCC(O)(Cc2ccccc2)CC1)S(=O)(=O)c1ccc(Cl)c(Cl)c1 (centres unmarked) [Example 43, N-{2-[2-(4-benzyl-4-hydroxy-piperidin-1-yl)-2-oxo-ethoxy]-cyclohexyl}-3,4-dichloro-N-methyl-phenylsulfonamide]	-1.29%	33.9%	–	–
Cc1cc(Cl)cc(Cl)c1S(=O)(=O)N(C)CCOCC(=O)N1CCC(O)(c2ccccn2)CC1 [Example 198, 2,4-dichloro-N-(2-(2-(4-hydroxy-4-(pyridin-2-yl)piperidin-1-yl)-2-oxoethoxy)ethyl)-N,6-dimethylphenylsulfonamide]	106%	99.2%	–	–
O=C(COCC1CCCN1S(=O)(=O)c1c(Cl)cc(C(F)(F)F)cc1Cl)N1CCC(O)(Cc2ccccc2)CC1 (centres unmarked) [Example 169, 1-(4-benzyl-4-hydroxypiperidin-1-yl)-2-((1-(2,6-dichloro-4-(trifluoromethyl)phenylsulfonyl)pyrrolidin-2-yl)methoxy)ethanone]	14.6%	79.4%	–	–
COc1cc(C)c(S(=O)(=O)N2CCCCC2COCC(=O)N2CCC(O)(c3ccncc3)CC2)c(C)c1 (centres unmarked) [Example 144, 1-(4-hydroxy-4-(pyridin-4-yl)piperidin-1-yl)-2-((1-(4-methoxy-2,6-dimethylphenylsulfonyl)piperidin-2-yl)methoxy)ethanone]	104%	101%	–	–
CN(c1ccccc1CCC(=O)N1CCC(O)(c2cccnc2)CC1)S(=O)(=O)c1ccc(Cl)c(Cl)c1 [Example 125, 3,4-dichloro-N-(2-(3-(4-hydroxy-4-(pyridin-3-yl)piperidin-1-yl)-3-oxopropyl)phenyl)-N-methylphenylsulfonamide]	93.2%	91.4%	–	–
O=C(COCC1CCCCN1S(=O)(=O)c1c(Cl)cccc1Cl)N1CCC(O)(c2ccc(Cl)c(C(F)(F)F)c2)CC1 (centres unmarked) [Example 236, 1-(4-(4-chloro-3-(trifluoromethyl)phenyl)-4-hydroxypiperidin-1-yl)-2-((1-(2,6-dichlorophenylsulfonyl)piperidin-2-yl)methoxy)ethanone]	102%	99.9%	–	–
